In patent publication US20130150340A1, “6-(4-Hydroxy-phenyl)-1H-pyrazolo[3,4-b]pyridine-4-carboxylic acid amide derivatives as kinase inhibitors” (SANOFI, priority 2011, published 2013):

Target: T1, human full-length recombinant PKC βII (Homo sapiens, UniProt P05771)
T1 construct: Active human full-length recombinant PKC βII; purchased Invitrogen GmbH, Darmstadt, Germany
Assay: Determination of PKC βII inhibition (Caliper mobility-shift kinase assay)
Format: biochemical
Settings: example compounds at a final concentration of 1.14 μM (±0.15 μM); 60 min incubation at 32° C.
Experimental: Determination of PKC 3H Inhibition
PKC βII inhibition was determined according to the following protocol:
Active human full-length recombinant PKC βII and the peptide substrate, Fluorescein-RFARKGSLRQKNV, were purchased from Invitrogen GmbH, Darmstadt, Germany. Adenosine-5′-triphosphate (ATP), bovine serum albumine (BSA), dimethylsulphoxide (DMSO), 4-(2-hydroxyethyl)piperazine-1-ethanesulfonic acid (Hepes), Triton X-100, 1,2-Dioleoyl-sn-glycerol (DAG), L-α-Phosphatidyl-L-serine (PS), calcium chloride (CaCl2), and Pluronic F-68 were purchased from Sigma-Aldrich, Munich, Germany. Magnesium chloride, 1 M sodium hydroxide solution, 1M hydrochloric acid solution and EDTA were obtained from Merck Biosciences, Darmstadt, Germany.
Test compounds were diluted to three times the test concentration in buffer 1 (30 mM Hepes-NaOH, pH 7.4, 0.01% Pluronic F-68 and 3% (v/v) DMSO). The PKC βII enzyme was diluted to a concentration of 30 ng/ml in buffer 2 (30 mM Hepes-NaOH, pH 7.4, 15 mM MgCl2, 150 μM CaCl2, 150 μg/ml PS, 60 μg/ml DAG, and 0.045% (w/v) Triton X-100). The peptide substrate and ATP were diluted to concentrations of 3 μM and 120 μM, respectively, in buffer 2. Two μl of the compound solution were mixed with 2 μl of the diluted enzyme in a 384-well small volume microtiter plate (Greiner, Bio-One, Frickenhausen, Germany), and the kinase reaction was initiated by addition of 2 μl of the solution containing peptide substrate and ATP. After 60 min incubation at 32° C., the reaction was stopped by addition of 20 μl of a solution containing 130 mM Hepes-NaOH, pH 7.4, 0.0195% (v/v) Brij-35, 6.5 mM EDTA, 0.13% chip coating reagent 3 (Caliper Lifescience Inc, Hopkinton, Mass.) and 6.5% (v/v) DMSO. Phosphorylation of the substrate peptide was then detected on a Caliper 3000 instrument essentially as described by Pommereau et al (J. Biomol. Screening 2004, 9(5), […]), Separation conditions were as follows: Pressure −0.8 psi, upstream voltage −3000 V, downstream voltage −800 V. Positive controls (buffer 1 instead of compound) and negative controls (buffer 1 instead of compound and buffer 2 instead of kinase solution) were run in parallel on each plate. Fractional turnover (R) was determined as the height of the peak of the phosphorylated peptide product divided by the sum of the unphosphorylated substrate and phosphorylated product peak heights. Percent-inhibition values for the test compounds were determined using the formula
% Inhibition=100*(1−(Rcompound−Rnegative control)/(Rpositive control−Rnegative control).

T1 sequence (P05771 1-673 isoform P05771-2): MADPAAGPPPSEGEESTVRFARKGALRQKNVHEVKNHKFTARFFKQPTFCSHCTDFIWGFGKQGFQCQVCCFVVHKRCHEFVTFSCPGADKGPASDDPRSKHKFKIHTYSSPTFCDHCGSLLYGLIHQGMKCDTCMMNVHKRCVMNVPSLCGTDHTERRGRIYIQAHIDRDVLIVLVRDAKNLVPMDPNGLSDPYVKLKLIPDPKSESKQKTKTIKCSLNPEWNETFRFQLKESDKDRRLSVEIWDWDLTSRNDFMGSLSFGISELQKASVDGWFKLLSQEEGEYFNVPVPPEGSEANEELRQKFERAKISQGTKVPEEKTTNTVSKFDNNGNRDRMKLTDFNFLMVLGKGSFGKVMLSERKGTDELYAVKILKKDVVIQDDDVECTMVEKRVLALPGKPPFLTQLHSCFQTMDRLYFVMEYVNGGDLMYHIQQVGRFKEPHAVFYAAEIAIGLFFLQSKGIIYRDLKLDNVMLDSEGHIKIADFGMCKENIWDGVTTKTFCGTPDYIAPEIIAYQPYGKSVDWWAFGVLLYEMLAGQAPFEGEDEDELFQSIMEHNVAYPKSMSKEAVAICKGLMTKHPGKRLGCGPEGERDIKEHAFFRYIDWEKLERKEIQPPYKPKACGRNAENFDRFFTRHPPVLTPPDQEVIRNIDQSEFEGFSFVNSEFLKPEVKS

Structure (SMILES)	inhibition at 1.14 µM [%]
CCN1CCCC(NC(=O)c2cc(-c3ccc(O)cc3)nc3[nH]ncc23)C1 (centres unmarked) [Example 60, 6-(4-Hydroxy-phenyl)-1H-pyrazolo[3,4-b]pyridine-4-carboxylic acid (1-ethyl-piperidin-3-yl)-amide]	54
O=C(c1cc(-c2ccc(O)cc2)nc2[nH]ncc12)N1CCN(C(=O)C2CCCO2)CC1 (centres unmarked) [Example 61, [6-(4-Hydroxy-phenyl)-1H-pyrazolo[3,4-b]pyridin-4-yl]-[4-(tetrahydro-furan-2-carbonyl)-piperazin-1-yl]-methanone]	22
O=C1CCC(CNC(=O)c2cc(-c3ccc(O)cc3)nc3[nH]ncc23)N1 (centres unmarked) [Example 63, 6-(4-Hydroxy-phenyl)-1H-pyrazolo[3,4-b]pyridine-4-carboxylic acid (5-oxo-pyrrolidin-2-ylmethyl)-amide]	48
CC1CCN(C2CCN(C(=O)c3cc(-c4ccc(O)cc4)nc4[nH]ncc34)C2)CC1 (centres unmarked) [Example 65, [6-(4-Hydroxy-phenyl)-1H-pyrazolo[3,4-b]pyridin-4-yl]-[3-(4-methyl-piperidin-1-yl)-pyrrolidin-1-yl]-methanone]	34
CN1CCC(NC(=O)c2cc(-c3ccc(O)cc3)nc3[nH]ncc23)CC1 [Example 66, 6-(4-Hydroxy-phenyl)-1H-pyrazolo[3,4-b]pyridine-4-carboxylic acid (1-methyl-piperidin-4-yl)-amide]	59
O=C(NC1CCN(C2CCCCC2)CC1)c1cc(-c2ccc(O)cc2)nc2[nH]ncc12 [Example 67, 6-(4-Hydroxy-phenyl)-1H-pyrazolo[3,4-b]pyridine-4-carboxylic acid (1-cyclohexyl-piperidin-4-yl)-amide]	64
CC(=O)N1CCC(NC(=O)c2cc(-c3ccc(O)cc3)nc3[nH]ncc23)CC1 [Example 68, 6-(4-Hydroxy-phenyl)-1H-pyrazolo[3,4-b]pyridine-4-carboxylic acid (1-acetyl-piperidin-4-yl)-amide]	40
O=C1CC[C@@H](NC(=O)c2cc(-c3ccc(O)cc3)nc3[nH]ncc23)CN1 [Example 69, 6-(4-Hydroxy-phenyl)-1H-pyrazolo[3,4-b]pyridine-4-carboxylic acid ((R)-6-oxo-piperidin-3-yl)-amide]	59
O=C(NC1CN2CCC1CC2)c1cc(-c2ccc(O)cc2)nc2[nH]ncc12 (centres unmarked) [Example 72, 6-(4-Hydroxy-phenyl)-1H-pyrazolo[3,4-b]pyridine-4-carboxylic acid (1-aza-bicyclo[2.2.2]oct-3-yl)-amide]	78
CN1CCC(N(C)C(=O)c2cc(-c3ccc(O)cc3)nc3[nH]ncc23)CC1 [Example 73, 6-(4-Hydroxy-phenyl)-1H-pyrazolo[3,4-b]pyridine-4-carboxylic acid methyl-(1-methyl-piperidin-4-yl)-amide]	31
O=C(c1cccnc1)N1CCN(C(=O)c2cc(-c3ccc(O)cc3)nc3[nH]ncc23)CC1 [Example 74, [6-(4-Hydroxy-phenyl)-1H-pyrazolo[3,4-b]pyridin-4-yl]-[4-(pyridine-3-carbonyl)-piperazin-1-yl]-methanone]	35
O=C(NC1CCN(Cc2ccncc2)CC1)c1cc(-c2ccc(O)cc2)nc2[nH]ncc12 [Example 75, 6-(4-Hydroxy-phenyl)-1H-pyrazolo[3,4-b]pyridine-4-carboxylic acid (1-pyridin-4-ylmethyl-piperidin-4-yl)-amide]	45

Further lines, results first:

inhibition at 1.14 µM [%]	Structure (SMILES)
48	CC(=O)N1CCCN(C(=O)c2cc(-c3ccc(O)cc3)nc3[nH]ncc23)CC1 [Example 59, 1-{4-[6-(4-Hydroxy-phenyl)-1H-pyrazolo[3,4-b]pyridine-4-carbonyl]-[1,4]diazepan-1-yl}-ethanone]
73	CN1CC(NC(=O)c2cc(-c3ccc(O)cc3)nc3[nH]ncc23)C1 [Example 62, 6-(4-Hydroxy-phenyl)-1H-pyrazolo[3,4-b]pyridine-4-carboxylic acid (1-methyl-azetidin-3-yl)-amide]
45	CCN1CCCN(C(=O)c2cc(-c3ccc(O)cc3)nc3[nH]ncc23)CC1 [Example 64, (4-Ethyl-[1,4]diazepan-1-yl)-[6-(4-hydroxy-phenyl)-1H-pyrazolo[3,4-b]pyridin-4-yl]-methanone]
46	CCN1CC2CC1CN2C(=O)c1cc(-c2ccc(O)cc2)nc2[nH]ncc12 (centres unmarked) [Example 70, (5-Ethyl-2,5-diaza-bicyclo[2.2.1]hept-2-yl)-[6-(4-hydroxy-phenyl)-1H-pyrazolo[3,4-b]pyridin-4-yl]-methanone]
27	COCCN1CCN(C(=O)c2cc(-c3ccc(O)cc3)nc3[nH]ncc23)CC1 [Example 71, [6-(4-Hydroxy-phenyl)-1H-pyrazolo[3,4-b]pyridin-4-yl]-[4-(2-methoxy-ethyl)-piperazin-1-yl]-methanone]
30	CN1CCN(C(=O)c2cc(-c3ccc(O)cc3)nc3[nH]ncc23)CC1=O [Example 76, 4-[6-(4-Hydroxy-phenyl)-1H-pyrazolo[3,4-b]pyridine-4-carbonyl]-1-methyl-piperazin-2-one]
57	O=C(N[C@@H]1CCCN(Cc2ccccc2)C1)c1cc(-c2ccc(O)cc2)nc2[nH]ncc12 [Example 77, 6-(4-Hydroxy-phenyl)-1H-pyrazolo[3,4-b]pyridine-4-carboxylic acid ((R)-1-benzyl-piperidin-3-yl)-amide]
84	O=C(NC1CCN(Cc2cccnc2)CC1)c1cc(-c2ccc(O)cc2)nc2[nH]ncc12 [Example 78, 6-(4-Hydroxy-phenyl)-1H-pyrazolo[3,4-b]pyridine-4-carboxylic acid (1-pyridin-3-ylmethyl-piperidin-4-yl)-amide]
